Measured values taken from paper PMC8480901 (PLoS ONE, 2021).
Values joined by “and” are separate entries in the source; they are usually repeats but may differ in a detail not shown here. Equal values may be shown once.

Test system: J774.2 mouse macrophages
Assay: LPS-induced cytokine and chemokine levels in J774.2 mouse macrophage cell supernatant (ELISA)
Type: cell-based
Details: for CXCL1 % reduction / CXCL1 [pg/mL] Mean / CXCL2 % reduction / CXCL2 [pg/mL] Mean / MMP9 % reduction / MMP9 [pg/mL] Mean / CXCL2 / MMP9: J774.2 cells; for CXCL1 % reduction / CXCL1 [pg/mL] Mean / CXCL2 % reduction / CXCL2 [pg/mL] Mean / MMP9 % reduction / MMP9 [pg/mL] Mean / CCl2, % reduction / CCl2, Mean / IL-1β % reduction / IL-6 % reduction / TNF-α % reduction / TNF-α Mean / CCl2 / CXCL1 / TNF-α / CXCL2 / MMP9: LPS; for CCl2, % reduction / CCl2, Mean / IL-1β % reduction / IL-6 % reduction / TNF-α % reduction / TNF-α Mean / CCl2 / CXCL1 / TNF-α: J774.2 supernatant; for CCl2 / CXCL1 / TNF-α / CXCL2 / MMP9: individual replicate

C[C@@H]1C[C@H]2[C@@H]3CCC4=CC(=O)C=C[C@]4(C)[C@@]3(F)[C@@H](O)C[C@]2(C)[C@@]1(O)C(=O)CO [Dexamethasone]
CXCL1 % reduction (compound 0.0003 µM): -75%
CXCL1 [pg/mL] Mean (compound 0.0003 µM): 45 pg/mL
CXCL2 % reduction (compound 0.0003 µM): 24%
CXCL2 [pg/mL] Mean (compound 0.0003 µM): 24934 pg/mL
MMP9 % reduction (compound 0.0003 µM): 2.49%
MMP9 [pg/mL] Mean (compound 0.0003 µM): 941 pg/mL
CXCL1 % reduction (compound 0.001 µM): -60%
CXCL1 [pg/mL] Mean (compound 0.001 µM): 41 pg/mL
CXCL2 % reduction (compound 0.001 µM): 22%
CXCL2 [pg/mL] Mean (compound 0.001 µM): 25589 pg/mL
MMP9 % reduction (compound 0.001 µM): -3.26%
MMP9 [pg/mL] Mean (compound 0.001 µM): 993 pg/mL
CXCL1 % reduction (compound 0.003 µM): -60%
CXCL1 [pg/mL] Mean (compound 0.003 µM): 41 pg/mL
CXCL2 % reduction (compound 0.003 µM): 22%
CXCL2 [pg/mL] Mean (compound 0.003 µM): 25475 pg/mL
MMP9 % reduction (compound 0.003 µM): 0.402%
MMP9 [pg/mL] Mean (compound 0.003 µM): 960 pg/mL
CXCL1 % reduction (compound 0.01 µM): -89%
CXCL1 [pg/mL] Mean (compound 0.01 µM): 48 pg/mL
CXCL2 % reduction (compound 0.01 µM): 23%
CXCL2 [pg/mL] Mean (compound 0.01 µM): 24995 pg/mL
MMP9 % reduction (compound 0.01 µM): -17%
MMP9 [pg/mL] Mean (compound 0.01 µM): 1120 pg/mL
CXCL1 [pg/mL] Mean (compound 0.03 µM): 66 pg/mL
CXCL2 % reduction (compound 0.03 µM): 17%
CXCL2 [pg/mL] Mean (compound 0.03 µM): 26915 pg/mL
MMP9 % reduction (compound 0.03 µM): -7%
MMP9 [pg/mL] Mean (compound 0.03 µM): 1030 pg/mL
CXCL1 % reduction (compound 0.1 µM): -158%
CXCL1 [pg/mL] Mean (compound 0.1 µM): 66 pg/mL
CXCL2 % reduction (compound 0.1 µM): 23%
CXCL2 [pg/mL] Mean (compound 0.1 µM): 25079 pg/mL
MMP9 % reduction (compound 0.1 µM): -12%
MMP9 [pg/mL] Mean (compound 0.1 µM): 1071 pg/mL
CXCL1 % reduction (compound 0.3 µM): -170%
CXCL1 [pg/mL] Mean (compound 0.3 µM): 69 pg/mL
CXCL2 % reduction (compound 0.3 µM): 24%
CXCL2 [pg/mL] Mean (compound 0.3 µM): 24836 pg/mL
MMP9 % reduction (compound 0.3 µM): 4.75%
MMP9 [pg/mL] Mean (compound 0.3 µM): 921 pg/mL
CXCL1 % reduction (compound 1 µM): -156%
CXCL1 [pg/mL] Mean (compound 1 µM): 66 pg/mL
CXCL2 % reduction (compound 1 µM): 21%
CXCL2 [pg/mL] Mean (compound 1 µM): 25750 pg/mL
MMP9 % reduction (compound 1 µM): -12%
MMP9 [pg/mL] Mean (compound 1 µM): 1077 pg/mL
LPS-induced TNF-α, IL-6, and IL-1β in supernatant (J774.2 mouse macrophages, 0.0003-1 µM): dose-dependent reductions
CCl2, % reduction (0.0003 µM): 30%
CCl2, Mean (0.0003 µM): 25543 pg/mL
IL-1β % reduction (0.0003 µM): -32%
IL-6 % reduction (0.0003 µM): -12%
TNF-α % reduction (0.0003 µM): -6.59%
TNF-α Mean (0.0003 µM): 1457 pg/mL
CCl2 (0.0003 µM): 25420.3 pg/mL and 25666.2 pg/mL
CXCL1 (0.0003 µM): 47.7 pg/mL and 41.8 pg/mL
TNF-α (0.0003 µM): 1400.2 pg/mL and 1513.9 pg/mL
CCl2, % reduction (0.001 µM): 27%
CCl2, Mean (0.001 µM): 26540 pg/mL
IL-1β % reduction (0.001 µM): -9%
IL-6 % reduction (0.001 µM): 2.11%
TNF-α Mean (0.001 µM): 1347 pg/mL
CCl2 (0.001 µM): 25719.1 pg/mL and 27360.7 pg/mL
CXCL1 (0.001 µM): 36.1 pg/mL and 45.9 pg/mL
TNF-α (0.001 µM): 1307.1 pg/mL and 1387.6 pg/mL
CCl2, % reduction (0.003 µM): 17%
CCl2, Mean (0.003 µM): 29971 pg/mL
IL-1β % reduction (0.003 µM): 20%
IL-6 % reduction (0.003 µM): -10%
TNF-α % reduction (0.003 µM): 9%
TNF-α Mean (0.003 µM): 1248 pg/mL
CCl2 (0.003 µM): 29318.9 pg/mL and 30622.8 pg/mL
CXCL1 (0.003 µM): 44.3 pg/mL and 37.5 pg/mL
TNF-α (0.003 µM): 1276.5 pg/mL and 1220.4 pg/mL
CCl2, % reduction (0.01 µM): 11%
CCl2, Mean (0.01 µM): 32289 pg/mL
IL-1β % reduction (0.01 µM): 44%
IL-6 % reduction (0.01 µM): 16%
TNF-α % reduction (0.01 µM): 16%
TNF-α Mean (0.01 µM): 1149 pg/mL
CCl2 (0.01 µM): 33314.7 pg/mL and 31263.9 pg/mL
CXCL1 (0.01 µM): 53.3 pg/mL and 43.3 pg/mL
TNF-α (0.01 µM): 1202.6 pg/mL and 1095.5 pg/mL
CCl2, % reduction (0.03 µM): -11%
CCl2, Mean (0.03 µM): 39841 pg/mL
IL-1β % reduction (0.03 µM): 63%
IL-6 % reduction (0.03 µM): 40%
TNF-α % reduction (0.03 µM): 30%
TNF-α Mean (0.03 µM): 960 pg/mL
CCl2 (0.03 µM): 43664.9 pg/mL and 36017.7 pg/mL
CXCL1 (0.03 µM): 62.3 pg/mL and 70.1 pg/mL
TNF-α (0.03 µM): 997.7 pg/mL and 922.4 pg/mL
CCl2, % reduction (0.1 µM): -6%
CCl2, Mean (0.1 µM): 38142 pg/mL
IL-1β % reduction (0.1 µM): 69%
IL-6 % reduction (0.1 µM): 54%
TNF-α % reduction (0.1 µM): 37%
TNF-α Mean (0.1 µM): 868 pg/mL
CCl2 (0.1 µM): 39902.2 pg/mL and 36382.1 pg/mL
CXCL1 (0.1 µM): 70.5 pg/mL and 61.8 pg/mL
TNF-α (0.1 µM): 957.1 pg/mL and 779.4 pg/mL
CCl2, % reduction (0.3 µM): 15%
CCl2, Mean (0.3 µM): 30843 pg/mL
IL-1β % reduction (0.3 µM): 75%
IL-6 % reduction (0.3 µM): 57%
TNF-α % reduction (0.3 µM): 49%
TNF-α Mean (0.3 µM): 706 pg/mL
CCl2 (0.3 µM): 33366.7 pg/mL and 28320.1 pg/mL
CXCL1 (0.3 µM): 70.8 pg/mL and 67.4 pg/mL
TNF-α (0.3 µM): 780.3 pg/mL and 630.8 pg/mL
CCl2, % reduction (1 µM): 14%
CCl2, Mean (1 µM): 31213 pg/mL
IL-1β % reduction (1 µM): 76%
IL-6 % reduction (1 µM): 58%
TNF-α % reduction (1 µM): 52%
TNF-α Mean (1 µM): 671 pg/mL
CCl2 (1 µM): 32973.4 pg/mL and 29452.4 pg/mL
CXCL1 (1 µM): 65.4 pg/mL and 65.8 pg/mL
TNF-α (1 µM): 708.1 pg/mL and 633.8 pg/mL
CXCL2 (compound 0.0003 µM): 24204.6 pg/mL and 25664.1 pg/mL
MMP9 (compound 0.0003 µM): 875.528 pg/mL and 1006.68 pg/mL
CXCL2 (compound 0.001 µM): 24896.6 pg/mL and 26281.1 pg/mL
MMP9 (compound 0.001 µM): 908.955 pg/mL and 1077.76 pg/mL
CXCL2 (compound 0.003 µM): 26063.4 pg/mL and 24885.7 pg/mL
MMP9 (compound 0.003 µM): 895.348 pg/mL and 1024.81 pg/mL
CXCL2 (compound 0.01 µM): 24945.6 pg/mL and 25043.7 pg/mL
MMP9 (compound 0.01 µM): 1078.2 pg/mL and 1162.43 pg/mL
CXCL2 (compound 0.03 µM): 28314.6 pg/mL and 25515.2 pg/mL
MMP9 (compound 0.03 µM): 1067.94 pg/mL and 991.656 pg/mL
CXCL2 (compound 0.1 µM): 25553.8 pg/mL and 24603.6 pg/mL
MMP9 (compound 0.1 µM): 1150.63 pg/mL and 991.656 pg/mL
CXCL2 (compound 0.3 µM): 25702.8 pg/mL and 23968.8 pg/mL
MMP9 (compound 0.3 µM): 877.422 pg/mL and 963.71 pg/mL
CXCL2 (compound 1 µM): 26832.3 pg/mL and 24668.5 pg/mL
MMP9 (compound 1 µM): 1055.41 pg/mL and 1099.09 pg/mL
